Test results reported in patent EP3335720A1, “C-DI-GMP BINDING PEPTIDES” (Universität Basel, priority 2016, dated 2018).
Read-outs that look alike come from different tables or passages of the source. Square brackets hold non-standard residues; d marks the D form. Peptide text beside a SMILES is read from it. * marks the point of attachment. FITC = O=C1OC2(c3ccc(O)cc3Oc3cc(O)ccc32)c2ccc(NC(=S)*)cc21

Columns and labels:
[1] = in vitro; assay type: in vitro ADME, P. aeruginosa PAO1; details: for remaining at 2 h: cells or culture medium
Procedure: P. aeruginosa PAO1 lysate, which was used to test peptide stability, was prepared by the following procedure. 500 ml of cells grown overnight at 37°C were harvested by centrifugation at 5000 rpm, 10 min at 4°C. Pellets were resuspended in 60 ml PBS (Gibco) and centrifuged at 5000 rpm, 10 min at 4°C. Pellets were resuspended again in 20 ml PBS and centrifuged at 5000 rpm, 10 min at 4°C. Cells were disrupted using high-pressure cell disrupter (Stansted Fluid Power). Cell lysate was separated from cell debris by centrifugation at 14,000 rpm for 20 min at 4°C. Lysate was diluted 10 fold to yield a protein content of about 1 mg/ml. The lysate was used for all experiments described below.
The stability of peptides was tested against P. aeruginosa PAO1 cell lysate. About 1 to 3 µg of peptides were incubated with 5 µl P. aeruginosa PAO1 cell lysate or PBS (untreated controls) at 37°C. After 2 hours, 6 µl of 2x SDS sample buffer was added to the samples and heated to 95°C for 5 min. Samples were analyzed on 10-20% Mini-PROTEAN tris-tricine gels (BIO-RAD #4563115) according to manufacturer's recommended protocol. Band intensities were quantified using the program ImageJ (Schneider, C. A., Rasband, W. S. and Eliceiri, K. W. 2012. NIH Image to ImageJ: 25 years of image analysis. Nature methods. 9: 671-675).

[2] = tested on: P. aeruginosa PAO1 biofilms; assay type: cell-based; details: PAO1, 24 h
Procedure: The parameter "MBIC50", as used herein, is defined as the peptide concentration leading to 50% biofilm reduction in a standard biofilm assay. Preferably, the medium used for the assay is Mueller-Hinton broth (MHB), since most bacteria can be grown in this medium, and it allows a reliable comparison of MBIC values. MBIC50 values in accordance with the invention are obtained by growing P. aeruginosa at 37°C in presence of different concentrations of peptides, without agitation, for 24 h, followed by staining the adherent biofilm, dissolving the biofilm and measuring the OD600.
The standard biofilm assay (O'Toole G.A., Pratt L.A., Watnick P.I., Newman D.K., Weaver V.B., and Kolter R. 1999. Genetic approaches to study of biofilms. Methods Enzymol. 310: 91-109) was followed with minor modification, i.e. Mueller-Hinton II broth (MHB) (Becton Dickinson #212322) was used instead of lysogenic broth (LB) or minimal medium. MHB is preferred by The European Committee on Antimicrobial Susceptibility Testing (EUCAST) as the medium for MIC determination because most bacteria can be grown in this medium, which allows a more reliable MIC values comparisons. The MBIC50 was defined as the peptide concentration leading to 50% biofilm reduction (de la Fuente-Nunez C., Korolik V., Bains M., Nguyen U., Breidenstein E. B. M., Horsman S., Lewenza S., Burrows L., Hancock, R. E. W. (2012) Inhibition of bacterial biofilm formation and swarming motility by a small synthetic cationic peptide. 56: 2696-2704). MBIC50 values were obtained by growing P. aeruginosa (PAO1) biofilms in 96-well plates (Falcon #353072) in presence of peptides at 37°C without agitation in MHB. After 24 hours, bacterial growth was evaluated by measuring the OD600 in a microtiter plate reader (EL800, BioTek). Afterwards, the plates were rinsed three times with demineralized water to remove non-attached bacteria. The adherent biofilms were stained with 0.1% Crystal Violet and subsequently dissolved in 20% acetic acid. Dissolved biofilms were quantified by measuring the OD600 in a microtiter plate reader.

[3] = target: c-di-GMP; assay: Binding affinity of peptides to c-di-GMP by isothermal titration calorimetry (ITC); details: for Kd: 15°C, pH 8.0, read-out: Dissociation constant; for binding affinity to c-di-GMP, in words: compared to the core sequence / peptide of SEQ ID NO: 12
Procedure: Binding affinities of peptides to c-di-GMP were measured using isothermal titration calorimetry (ITC) on a VP-ITC MicroCalorimeter (MicroCal, Northampton, MA, USA). Peptides, c-di-GMP and buffer (50 mM Tris-HCl, pH 8.0, 100 mM NaCl) were degassed for 15 min prior to filling into sample cell and syringe. All experiments were carried out at a temperature of 15°C. The data were evaluated using ITC Data Analysis in ORIGIN provided by the manufacturer.

[4] = Table 3, peptides with amino acid substitution
[5] = Table 4, deletion of single amino acid

Compound	remaining at 2 h [1] [%]	Kd [3, 4] [nM]	also measured
C[C@H](NC(=O)[C@H](CO)NC(=O)[C@H](CC(N)=O)NC(=O)[C@H](Cc1ccccc1)NC(=O)[C@H](CCCNC(=N)N)NC(=O)[C@H](CCCNC(=N)N)NC(=O)[C@H](CCCNC(=N)N)NC(=O)[C@H](CC(=O)O)NC(=O)[C@H](N)CCCNC(=N)N)C(=O)N[C@@H](CC(=O)O)C(=O)N[C@@H](Cc1ccc(O)cc1)C(=O)N[C@@H](CCCCN)C(=O)NCC(=O)N1CCC[C@H]1C(=O)N[C@@H](CCCNC(=N)N)C(=O)N[C@@H](CCCNC(=N)N)C(=O)N[C@@H](CCCNC(=N)N)C(=O)N[C@@H](CCCCN)C(=O)N[C@@H](C)C(=O)N[C@@H](CC(=O)O)C(=O)N[C@H](C)C(N)=O [SEQ ID NO: 42, rDRRRFNSADYKGPRRRKADa-NH2] (H-[dR]DRRRFNSADYKGPRRRKAD[dA]-NH2)	–	–	Remaining peptide after 2 hours [1]: significant improvement
C[C@H](NC(=O)[C@H](CO)NC(=O)[C@H](CC(N)=O)NC(=O)[C@H](Cc1ccccc1)NC(=O)[C@H](CCCNC(=N)N)NC(=O)[C@H](CCCNC(=N)N)NC(=O)[C@H](CCCNC(=N)N)NC(=O)[C@H](N)CC(=O)O)C(=O)N[C@@H](CC(=O)O)C(=O)N[C@@H](Cc1ccc(O)cc1)C(=O)N[C@@H](CCCCN)C(=O)NCC(=O)N1CCC[C@H]1C(=O)N[C@@H](CCCNC(=N)N)C(=O)N[C@@H](CCCNC(=N)N)C(=O)N[C@@H](CCCNC(=N)N)C(=O)N[C@@H](CCCCN)C(=O)N[C@@H](C)C(=O)N[C@H](CC(=O)O)C(=O)O [compound 39] (H-[dD]RRRFNSADYKGPRRRKA[dD]-OH)	19	–	–
C[C@H](NC(=O)[C@H](CO)NC(=O)[C@H](CC(N)=O)NC(=O)[C@H](Cc1ccccc1)NC(=O)[C@H](CCCNC(=N)N)NC(=O)[C@H](CCCNC(=N)N)NC(=O)[C@H](CCCNC(=N)N)NC(=O)[C@H](CC(=O)O)NC(=O)[C@H](N)CCCNC(=N)N)C(=O)N[C@@H](CC(=O)O)C(=O)N[C@@H](Cc1ccc(O)cc1)C(=O)N[C@@H](CCCCN)C(=O)NCC(=O)N1CCC[C@H]1C(=O)N[C@@H](CCCNC(=N)N)C(=O)N[C@@H](CCCNC(=N)N)C(=O)N[C@@H](CCCNC(=N)N)C(=O)N[C@@H](CCCCN)C(=O)N[C@@H](C)C(=O)N[C@@H](CC(=O)O)C(=O)N[C@H](C)C(=O)O [compound 40] (H-[dR]DRRRFNSADYKGPRRRKAD[dA]-OH)	15	–	–
CC(=O)N[C@H](CCCNC(=N)N)C(=O)N[C@@H](CC(=O)O)C(=O)N[C@@H](CCCNC(=N)N)C(=O)N[C@@H](CCCNC(=N)N)C(=O)N[C@@H](CCCNC(=N)N)C(=O)N[C@@H](Cc1ccccc1)C(=O)N[C@@H](CC(N)=O)C(=O)N[C@@H](CO)C(=O)N[C@@H](C)C(=O)N[C@@H](CC(=O)O)C(=O)N[C@@H](Cc1ccc(O)cc1)C(=O)N[C@@H](CCCCN)C(=O)NCC(=O)N1CCC[C@H]1C(=O)N[C@@H](CCCNC(=N)N)C(=O)N[C@@H](CCCNC(=N)N)C(=O)N[C@@H](CCCNC(=N)N)C(=O)N[C@@H](CCCCN)C(=O)N[C@@H](C)C(=O)N[C@@H](CC(=O)O)C(=O)N[C@H](C)C(N)=O [compound 41] (Ac-[dR]DRRRFNSADYKGPRRRKAD[dA]-NH2)	19	–	–
C[C@H](NC(=O)[C@H](CO)NC(=O)[C@H](CC(N)=O)NC(=O)[C@H](Cc1ccccc1)NC(=O)[C@H](CCCNC(=N)N)NC(=O)[C@H](CCCNC(=N)N)NC(=O)[C@H](CCCNC(=N)N)NC(=O)[C@H](CC(=O)O)NC(=O)[C@H](N)CCCNC(=N)N)C(=O)N[C@@H](CC(=O)O)C(=O)N[C@@H](Cc1ccc(O)cc1)C(=O)N[C@@H](CCCCN)C(=O)NCC(=O)N1CCC[C@H]1C(=O)N[C@@H](CCCNC(=N)N)C(=O)N[C@@H](CCCNC(=N)N)C(=O)N[C@@H](CCCNC(=N)N)C(=O)N[C@@H](CCCCN)C(=O)N[C@@H](C)C(=O)N[C@@H](CC(=O)O)C(=O)N[C@H](C)C(N)=O [compound 42] (H-[dR]DRRRFNSADYKGPRRRKAD[dA]-NH2)	38	–	–
C[C@H](NC(=O)[C@H](CO)NC(=O)[C@H](CC(N)=O)NC(=O)[C@H](Cc1ccccc1)NC(=O)[C@H](CCCNC(=N)N)NC(=O)[C@H](CCCNC(=N)N)NC(=O)[C@H](CCCNC(=N)N)NC(=O)[C@H](CC(=O)O)NC(=S)Nc1ccc2c(c1)C(=O)OC21c2ccc(O)cc2Oc2cc(O)ccc21)C(=O)N[C@@H](CC(=O)O)C(=O)N[C@@H](Cc1ccc(O)cc1)C(=O)N[C@@H](CCCCN)C(=O)NCC(=O)N1CCC[C@H]1C(=O)N[C@@H](CCCNC(=N)N)C(=O)N[C@@H](CCCNC(=N)N)C(=O)N[C@@H](CCCNC(=N)N)C(=O)N[C@@H](CCCCN)C(=O)N[C@@H](C)C(=O)N[C@@H](CC(=O)O)C(N)=O [compound 43] ({FITC}-DRRRFNSADYKGPRRRKAD-NH2)	–	–	MBIC50 [2]: 0.25 to 0.5 mg/L
Ac-ARRRFNSADYKGPRRRKAD-NH2 [compound 13]	56	1530	–
Ac-DARRFNSADYKGPRRRKAD-NH2 [compound 14]	12	1450	–
Ac-DRARFNSADYKGPRRRKAD-NH2 [compound 15]	11	1510	–
Ac-DRRAFNSADYKGPRRRKAD-NH2 [compound 16]	35	780	–
Ac-DRRRANSADYKGPRRRKAD-NH2 [SEQ ID NO: 17, AC-DRRRANSADYKGPRRRKAD-NH2]	70	–	binding affinity to c-di-GMP, in words [3]: does not significantly reduce binding affinity
Ac-DRRRFASADYKGPRRRKAD-NH2 [compound 18]	1	220	–
Ac-DRRRFNAADYKGPRRRKAD-NH2 [compound 19]	30	210	–
Ac-DRRRFNSAAYKGPRRRKAD-NH2 [compound 21]	2	150	–
Ac-DRRRFNSADAKGPRRRKAD-NH2 [compound 22]	39	4360	–
Ac-DRRRFNSADYAGPRRRKAD-NH2 [compound 23]	42	260	–
Ac-DRRRFNSADYKAPRRRKAD-NH2 [compound 24]	41	4070	–
Ac-DRRRFNSADYKGARRRKAD-NH2 [compound 25]	30	350	–
Ac-DRRRFNSADYKGPARRKAD-NH2 [compound 26]	27	1830	–
Ac-DRRRFNSADYKGPRARKAD-NH2 [compound 27]	2	3950	–
Ac-DRRRFNSADYKGPRRRAAD-NH2 [compound 29]	9	270	–
Ac-DRRRFNSADYKGPRRRKAA-NH2 [compound 31]	26	1750	–
Ac-DRRRFNSADYKGPRRRKLD-NH2 [compound 30]	51	250	–
Ac-DRRRFNSDYKGPRRRKAD-NH2 [compound 36]	–	–	Kd [3, 5]: 340 nM
Ac-DRRRFNSLDYKGPRRRKAD-NH2 [SEQ ID NO: 20, AC-DRRRFNSLDYKGPRRRKAD-NH2]	–	–	binding affinity to c-di-GMP, in words [3]: does not significantly reduce binding affinity
Ac-DRRRFNSLDYKGPRRRKAD-NH2 [compound 20]	27	100	–
Ac-DRRRFSADYKGPRRRKAD-NH2 [SEQ ID NO: 34, AC-DRRRFSADYKGPRRRKAD-NH2]	–	–	binding affinity to c-di-GMP, in words [3]: Affinity decreased further
Ac-DRRRFSADYKGPRRRKAD-NH2 [compound 34]	–	–	Kd [3, 5]: 1250 nM
Ac-DRRRNSADYKGPRRRKAD-NH2 [SEQ ID NO: 33, AC-DRRRNSADYKGPRRRKAD-NH2]	–	–	binding affinity to c-di-GMP, in words [3]: Affinity decreased further
Ac-DRRRNSADYKGPRRRKAD-NH2 [compound 33]	–	–	Kd [3, 5]: 1270 nM
